Data on 15 compounds can be found in patent US11071731B2, “Allosteric modulators of the mu opioid receptor” (Chiromics, LLC, priority 2017, dated 2021).

Experiment [1] has as its target T1, mu opioid receptor (MOR) (Homo sapiens, UniProt P35372). The experiment in a line: PathHunter β-arrestin recruitment assay, PAM mode with EC20 endomorphin-1. The experiment is classed as cell-based. The note with it: for EC50: read-out: β-arr. EC50. The method in brief:
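Enzyme fragment complementation read-out: β-gal ED fragment fused to receptor, EA fused to β-arrestin, recruitment restoring β-gal activity detected by chemiluminescence. EC50 and percent maximal response derived for each compound.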
(Activated receptors often draw arrestin, which recruitment assays turn into a signal.)

Experiment [2] addresses T1, mu opioid receptor (MOR). Put plainly: Hit Hunter cAMP signaling assay (adenylyl cyclase inhibition), PAM mode with EC20 endomorphin-1. The class given is cell-based.
[3] abbreviates: maximal response for β-arrestin recruitment.
[4] abbreviates: adenylyl cyclase inhibition, read-out: cAMP EC50.
The mark [5] stands for this setting: maximal response for adenylyl cyclase inhibition.
The mark [6] stands for this setting: cAMP EC50, adenylyl cyclase inhibition.

T1 sequence (P35372 whole entry, the tested form may be a part): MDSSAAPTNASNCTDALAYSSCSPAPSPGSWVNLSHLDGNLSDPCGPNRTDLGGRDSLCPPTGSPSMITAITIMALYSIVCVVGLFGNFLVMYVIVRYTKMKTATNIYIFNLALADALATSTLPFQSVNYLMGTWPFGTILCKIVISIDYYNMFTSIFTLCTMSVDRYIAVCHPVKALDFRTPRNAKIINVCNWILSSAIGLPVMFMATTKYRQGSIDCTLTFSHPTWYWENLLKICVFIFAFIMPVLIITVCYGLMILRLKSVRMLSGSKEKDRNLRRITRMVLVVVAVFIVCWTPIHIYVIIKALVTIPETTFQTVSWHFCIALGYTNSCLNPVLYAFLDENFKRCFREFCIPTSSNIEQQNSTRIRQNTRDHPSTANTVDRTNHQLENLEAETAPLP

As to `Fc1cc(C2CSCCN2c2nc(Cl)ncc2F)cc(C(F)(F)F)c1` (racemic) [Compound 301], the “β-arr Max. Resp.” value in experiment [1] (setting [3]) is on record as “F (F represents a maximal response of > 60%)”. Also, the EC50 in experiment [1] (β-arrestin recruitment) was 700 to 2100 nM; in experiment [2] (setting [4]), under 700 nM. For the same compound, in experiment [2] (setting [5]), the “cAMP Max. Resp.” value was “E (E represents a maximal response of 40-60%)”.
For `CC1CCN(S(=O)(=O)c2ccc(Cl)cc2)C1c1ccc(F)c(F)c1F` (mixture of isomers) [Compound 98] the same measures were “E (E represents a maximal response of 40-60%)”, over 2100 nM, over 2100 nM and “D (D represents a maximal response of < 40%)”.
Consider `Cc1cnc(C2CCCCN2c2nc(Cl)ncc2F)o1` (stereo not drawn) [compound 364], for which, in experiment [1] (setting [3]), the “β-arr Max. Resp.” value is reported as “D (D represents a maximal response of < 40%)”. For the same compound, the EC50 in experiment [1] (β-arrestin recruitment) and in experiment [2] (setting [6]) was under 700 nM in each case. Further, in experiment [2] (setting [5]), the “cAMP Max. Resp.” value is reported as “D (D represents a maximal response of < 40%)”.
As to `O=S(=O)(c1ccc(Cl)cc1)N1CCCCC1c1cc(F)ccn1` (racemic) [compound 62], the “β-arr Max. Resp.” value in experiment [1] (setting [3]) is “F (F represents a maximal response of > 60%)”. In addition, the EC50 in experiment [1] (β-arrestin recruitment) and in experiment [2] (setting [4]) was over 2100 nM each time. In addition, the “cAMP Max. Resp.” value in experiment [2] (setting [5]) is given as “D (D represents a maximal response of < 40%)”.
For the compound `Cc1coc(C2CCCCN2c2nc(Cl)ncc2F)n1` (stereo not drawn) [compound 366], the “β-arr Max. Resp.” value in experiment [1] (setting [3]) is “D (D represents a maximal response of < 40%)”. The concentration giving a half-maximal response (EC50) in experiment [1] (β-arrestin recruitment) and in experiment [2] (setting [6]) was under 700 nM in each case. Also, the “cAMP Max. Resp.” value in experiment [2] (setting [5]) is on record as “D (D represents a maximal response of < 40%)”.
Take `O=S(=O)(c1ccc(Cl)cc1)N1CCCCC1c1cccc(Cl)c1` (racemic) [compound 61]: in experiment [1] (setting [3]), the “β-arr Max. Resp.” value is listed as “F (F represents a maximal response of > 60%)”. In addition, the EC50 in experiment [1] (β-arrestin recruitment) and in experiment [2] (setting [4]) was over 2100 nM throughout. Moreover, the “cAMP Max. Resp.” value in experiment [2] (setting [5]) is reported as “E (E represents a maximal response of 40-60%)”.
For `Cc1cnc(N2CCCCC2c2cccc(F)n2)nc1Cl` (stereo not drawn) [compound 268], in experiment [1] (setting [3]), the “β-arr Max. Resp.” value was “D (D represents a maximal response of < 40%)”. Besides, the EC50 in experiment [1] (β-arrestin recruitment) and in experiment [2] (setting [6]) was over 2100 nM throughout. Further, the “cAMP Max. Resp.” value in experiment [2] (setting [5]) was “F (F represents a maximal response of > 60%)”.
`FC(F)(F)c1cccc(C2CCCCN2Cc2ccc(Cl)c(Cl)c2)n1` (stereo not drawn) [compound 153]: in experiment [1] (setting [3]), the “β-arr Max. Resp.” value is “F (F represents a maximal response of > 60%)”. Also, the EC50 in experiment [1] (β-arrestin recruitment) and in experiment [2] (setting [6]) was over 2100 nM throughout. In addition, in experiment [2] (setting [5]), the “cAMP Max. Resp.” value is recorded as “D (D represents a maximal response of < 40%)”.
As to `COc1ccc(C2CCCCN2c2ccnc(Cl)n2)cc1Br` (stereo not drawn) [compound 226], in experiment [1] (setting [3]), the “β-arr Max. Resp.” value is listed as “F (F represents a maximal response of > 60%)”. Moreover, the EC50 in experiment [1] (β-arrestin recruitment) and in experiment [2] (setting [6]) was over 2100 nM in each case. Also, in experiment [2] (setting [5]), the “cAMP Max. Resp.” value was “F (F represents a maximal response of > 60%)”.
As for `Fc1cc(C2COCCN2c2nc(Cl)ncc2F)cc(C(F)(F)F)c1` (single isomer, unassigned) [Compound 344], in experiment [1] (setting [3]), the “β-arr Max. Resp.” value is on record as “D (D represents a maximal response of < 40%)”. For the same compound, the EC50 in experiment [1] (β-arrestin recruitment) and in experiment [2] (setting [4]) was under 700 nM in each case. In addition, the “cAMP Max. Resp.” value in experiment [2] (setting [5]) is on record as “D (D represents a maximal response of < 40%)”.
Turning to `COc1ccc(C2CCCCN2c2cncc(C(F)(F)F)n2)cc1Br` (stereo not drawn) [compound 230], the “β-arr Max. Resp.” value in experiment [1] (setting [3]) was “F (F represents a maximal response of > 60%)”. Besides, the EC50 in experiment [1] (β-arrestin recruitment) and in experiment [2] (setting [6]) was over 2100 nM each time. In experiment [2] (setting [5]), the “cAMP Max. Resp.” value is given as “F (F represents a maximal response of > 60%)”.
Turning to `Fc1ccc(C2CC(C(F)(F)F)CN2c2nc(Cl)ncc2F)cc1Cl` (stereo not drawn) [compound 476], the “β-arr Max. Resp.” value in experiment [1] (maximal response, β-arrestin recruitment) is “E (E represents a maximal response of 40-60%)”. Further, the EC50 in experiment [1] (β-arrestin recruitment) and in experiment [2] (setting [4]) was over 2100 nM in each case. Also, in experiment [2] (maximal response, adenylyl cyclase inhibition), the “cAMP Max. Resp.” value is listed as “D (D represents a maximal response of < 40%)”.
Consider `Cc1c(C2CCCCN2c2nc(Cl)ncc2F)cccc1C(F)(F)F` (stereo not drawn) [compound 135], for which the “β-arr Max. Resp.” value in experiment [1] (setting [3]) is “F (F represents a maximal response of > 60%)”. For the same compound, the values for the concentration giving a half-maximal response (EC50) in experiment [1] (β-arrestin recruitment) and in experiment [2] (setting [6]) were 700 to 2100 nM and under 700 nM, respectively. Besides, in experiment [2] (setting [5]), the “cAMP Max. Resp.” value is on record as “D (D represents a maximal response of < 40%)”.
Taken in the same sequence, the figures for `CC[C@@H]1CCCN(c2nc(Cl)ncc2F)[C@@H]1c1ccc(OC)c(Br)c1` (relative stereo) [compound 250] were “F (F represents a maximal response of > 60%)”, over 2100 nM, over 2100 nM and “D (D represents a maximal response of < 40%)”.
Taken in the same sequence, the figures for `Fc1cnc(Cl)nc1N1CCCCC1c1ccc2ncccc2c1` (stereo not drawn) [compound 326] were “D (D represents a maximal response of < 40%)”, under 700 nM, under 700 nM and “D (D represents a maximal response of < 40%)”.

By EC50 is commonly meant the concentration that produces a half-maximal response.
